Target: T1, Dual specificity mitogen-activated protein kinase kinase 7 (Homo sapiens, UniProt O14733)
T1 sequence (O14733 whole entry): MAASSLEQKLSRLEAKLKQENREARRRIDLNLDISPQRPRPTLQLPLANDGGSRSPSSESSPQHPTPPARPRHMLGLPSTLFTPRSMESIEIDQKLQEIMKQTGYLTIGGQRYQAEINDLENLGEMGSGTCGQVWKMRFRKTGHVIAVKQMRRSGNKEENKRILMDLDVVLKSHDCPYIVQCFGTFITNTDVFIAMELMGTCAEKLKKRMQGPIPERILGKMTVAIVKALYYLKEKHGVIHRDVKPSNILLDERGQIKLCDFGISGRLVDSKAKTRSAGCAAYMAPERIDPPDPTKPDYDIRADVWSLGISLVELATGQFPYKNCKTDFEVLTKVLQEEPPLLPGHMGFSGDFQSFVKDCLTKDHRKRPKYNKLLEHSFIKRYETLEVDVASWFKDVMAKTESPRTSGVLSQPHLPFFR
Assay: Inhibition of MAP2K7 (unknown origin) using JNK peptide KFMMTPYVVTR incubated for 30 mins measured by multimode reader based ADP-glo assay

C#CCNC(=O)c1cc(NC(=O)C=C)cc(-c2n[nH]c3ccccc23)c1
IC50: 6.5 nM

Source: ChEMBL document CHEMBL4699503, “Structural basis for producing selective MAP2K7 inhibitors” (Bioorg Med Chem Lett, 2020)
